Biological target: T1, human Nox2 (Homo sapiens, UniProt P04839)
T1 construct: host or cells: T-REx-CHO (hNOX2 T-REx-CHO), tetracycline-induced; membrane fraction
T1 sequence (P04839 2-570 limits assumed): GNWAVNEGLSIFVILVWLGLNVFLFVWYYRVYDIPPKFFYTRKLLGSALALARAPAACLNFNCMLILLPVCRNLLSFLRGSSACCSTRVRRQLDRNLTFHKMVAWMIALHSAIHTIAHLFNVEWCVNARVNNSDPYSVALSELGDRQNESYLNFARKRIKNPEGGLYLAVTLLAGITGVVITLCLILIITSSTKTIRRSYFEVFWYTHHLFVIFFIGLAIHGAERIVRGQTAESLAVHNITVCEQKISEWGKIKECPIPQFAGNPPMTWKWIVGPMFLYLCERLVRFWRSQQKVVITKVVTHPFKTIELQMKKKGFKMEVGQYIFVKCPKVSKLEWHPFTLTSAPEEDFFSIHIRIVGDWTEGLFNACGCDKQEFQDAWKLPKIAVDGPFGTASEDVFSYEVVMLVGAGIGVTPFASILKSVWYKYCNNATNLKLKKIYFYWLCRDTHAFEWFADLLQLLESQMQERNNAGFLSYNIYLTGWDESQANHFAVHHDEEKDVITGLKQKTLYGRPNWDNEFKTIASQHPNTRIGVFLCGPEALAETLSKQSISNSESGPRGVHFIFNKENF
T1 sequence (P13498 2-195 partner limits assumed): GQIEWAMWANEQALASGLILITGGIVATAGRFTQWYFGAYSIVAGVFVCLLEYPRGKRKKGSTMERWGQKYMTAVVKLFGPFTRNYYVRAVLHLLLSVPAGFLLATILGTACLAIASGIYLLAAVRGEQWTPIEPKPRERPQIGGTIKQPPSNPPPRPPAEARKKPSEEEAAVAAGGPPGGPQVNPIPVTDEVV
Assay: ROS production by membranes expressing human Nox2, cell-free Amplex Red assay
Type: biochemical
Conditions: cell-free membranes, Amplex Red; Cheng-Prusoff; average of at least three experiments in triplicate; read-out: Ki hNox2
Outline: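 Membranes from tetracycline-induced (1 μg/ml, 24 h) T-REx-CHO cells stably expressing hNox2 with p22 and cofactors, incubated in PBS with Amplex Red, HRP and cofactors; NADPH starts ROS production. Compounds 1 nM–100 μM, 20 min at 37 °C, then fluorescence (544/590 nm) read for 10 min; Ki by Cheng-Prusoff.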

For `COc1ccc(-c2c3c(=O)n(-c4ccccc4OC)[nH]c3cc(=O)n2Cc2cccnc2)c(F)c1` [Compound (1), 4-(2-fluoro-4-methoxyphenyl)-2-(2-methoxyphenyl)-5-(pyridin-3-ylmethyl)-1H-pyrazolo[4,3-c]pyridine-3,6(2H,5H)-dione], which Ki is on record?
The Ki was 813 nM.

Reference: patent US20140323500A1, “NADPH OXIDASE 4 INHIBITORS AND USE THEREOF” (GENKYOTEX SA, priority 2011, published 2014)
